Measured values from patent US3979513A, “1'-Substituted-9,10-dihydroanthracene-9-spiro-4'-piperidine derivatives” (priority 1974, dated 1976).
Where two headings read alike, the source gives them in different places.

Assay: acute toxicity (LD50) in mice
Details: mouse, in vivo
Procedure: The corresponding intravenous LD50 is 40 mg./kg. Other LD50 values for compounds of the invention when dosed intravenously are as follows: […]

[1] = iv, dosed intravenously (table 1), read-out: LD50

With CN1CCC2(CC1)c1ccccc1C(O)c1ccccc12 [10-hydroxy-1'-methyl-9,10-dihydroanthracene-9-spiro-4'-piperidine] the LD50 (mice, intravenous, read-out: intravenous LD50) was 40 mg/kg and the LD50 (mice, oral, read-out: oral LD50) was > 250 mg/kg.

In the case of Cc1ccc2c(c1)C1(CCN(C)CC1)c1ccccc1C2O (centres unmarked) [Me 2-Me H OH H, 1',2-dimethyl-10-hydroxy-9,10-dihydroanthracene-9-spiro-4'-piperidine], the LD50 [1] is reported as 37 mg/kg.

Work on CC(=O)Oc1cccc2c1Cc1ccccc1C21CCN(C)CC1 [Me 4-OAc H H H, 4-acetoxy-1'-methyl-9,10-dihydroanthracene-9-spiro-4'-piperidine] yielded an LD50 [1] of 43 mg/kg.

For CN1CCC2(CC1)c1ccccc1C(C)(O)c1c(O)cccc12 (centres unmarked) [Me 4-OH H OH Me, 4,10-dihydroxy-1',10-dimethyl-9,10-dihydroanthracene-9-spiro-4'-piperidine], the LD50 [1] was 25 mg/kg.
